In this assay the test system is MV-4-11 cells. Kind of assay: Gene expression microarray analysis (Affymetrix PrimeView) and GSEA. It counts as cell-based, human. Also noted: RFU PODN (11730768_x_at) / Fold change /veh PODN (11730768_x_at) / RFU LINC00158 (11744669_a_at) / Fold change /veh LINC00158 (11744669_a_at) / RFU DUSP10 (11751237_a_at) / Fold change /veh DUSP10 (11751237_a_at) / RFU ID3 (11757404_x_at) / Fold change /veh ID3 (11757404_x_at) / RFU PLEKHG5 (11737974_s_at) / Fold change /veh PLEKHG5 (11737974_s_at) / RFU LRRC4B (11730491_at) / Fold change /veh LRRC4B (11730491_at) / RFU GIMAP4 (11747438_a_at) / Fold change /veh GIMAP4 (11747438_a_at) / RFU KRT8 (11758183_x_at) / Fold change /veh KRT8 (11758183_x_at) / RFU CNN1 (11734310_a_at) / Fold change /veh CNN1 (11734310_a_at) / RFU VPS37D (11726825_at) / Fold change /veh VPS37D (11726825_at) / RFU C10orf10 (11716522_x_at) / Fold change /veh C10orf10 (11716522_x_at) / RFU KIR2DL2 /// KIR2DL4 /// KIR2DL5A /// KIR2DL5B /// KIR2DS1 /// KIR2DS2 /// KIR2DS3 /// KIR2DS4 /// KIR3DL3 /// KIR3DL3 /// KIR3DS1 (11738374_at) / Fold change /veh KIR2DL2 /// KIR2DL4 /// KIR2DL5A /// KIR2DL5B /// KIR2DS1 /// KIR2DS2 /// KIR2DS3 /// KIR2DS4 /// KIR3DL3 /// KIR3DL3 /// KIR3DS1 (11738374_at) / RFU C1QL1 (11718748_at) / Fold change /veh C1QL1 (11718748_at) / RFU TMPRSS4 (11747572_a_at) / Fold change /veh TMPRSS4 (11747572_a_at) / RFU HAMP (11756126_x_at) / Fold change /veh HAMP (11756126_x_at) / RFU RNFT2 (11725882_a_at) / Fold change /veh RNFT2 (11725882_a_at) / RFU NR4A2 (11747474_a_at) / Fold change /veh NR4A2 (11747474_a_at) / RFU ABCC12 (11746883_a_at) / Fold change /veh ABCC12 (11746883_a_at) / RFU TMEM136 (11760407_x_at) / Fold change /veh TMEM136 (11760407_x_at) / RFU CLDN22 /// WWC2 (11732394_at) / Fold change /veh CLDN22 /// WWC2 (11732394_at) / RFU HLA-DPB1 (11760878_x_at) / Fold change /veh HLA-DPB1 (11760878_x_at) / RFU SPINT1 (11716480_a_at) / Fold change /veh SPINT1 (11716480_a_at) / RFU GAP43 (11754022_s_at) / Fold change /veh GAP43 (11754022_s_at) / RFU A4GNT (11735810_at) / Fold change /veh A4GNT (11735810_at) / RFU PRB3 (11715151_x_at) / Fold change /veh PRB3 (11715151_x_at) / RFU TUBB4B (11761932_at) / Fold change /veh TUBB4B (11761932_at) / RFU CAPN14 (11732068_a_at) / Fold change /veh CAPN14 (11732068_a_at) / RFU TMCC2 (11721928_a_at) / Fold change /veh TMCC2 (11721928_a_at) / RFU IRGQ (11745062_a_at) / Fold change /veh IRGQ (11745062_a_at) / RFU FAM174B (11720279_a_at) / Fold change /veh FAM174B (11720279_a_at) / RFU TMPRSS4 (11748680_a_at) / Fold change /veh TMPRSS4 (11748680_a_at) / RFU FAM212B (11763350_a_at) / Fold change /veh FAM212B (11763350_a_at) / RFU PLEKHG5 (11743358_a_at) / Fold change /veh PLEKHG5 (11743358_a_at) / RFU ZSCAN30 (11745921_a_at) / Fold change /veh ZSCAN30 (11745921_a_at) / RFU CMKLR1 (11741424_a_at) / Fold change /veh CMKLR1 (11741424_a_at) / RFU LOC101060620 /// MAPK8IP1 (11723275_at) / Fold change /veh LOC101060620 /// MAPK8IP1 (11723275_at) / RFU SPTSSB (11747773_x_at) / Fold change /veh SPTSSB (11747773_x_at) / RFU PRSS12 (11739890_at) / Fold change /veh PRSS12 (11739890_at) / RFU BIN1 (11741810_x_at) / Fold change /veh BIN1 (11741810_x_at) / RFU WNT11 (11732464_a_at) / Fold change /veh WNT11 (11732464_a_at) / RFU C10orf10 (11716521_a_at) / Fold change /veh C10orf10 (11716521_a_at) / RFU C5orf56 (11738089_at) / Fold change /veh C5orf56 (11738089_at) / RFU CYB561 (11721691_x_at) / Fold change /veh CYB561 (11721691_x_at) / RFU ANKRD19P (11752326_a_at) / Fold change /veh ANKRD19P (11752326_a_at) / RFU OR2T12 /// OR2T33 /// OR2T8 (11738714_s_at) / Fold change /veh OR2T12 /// OR2T33 /// OR2T8 (11738714_s_at) / RFU VCAN (11748164_a_at) / Fold change /veh VCAN (11748164_a_at) / RFU JSRP1 (11732532_at) / Fold change /veh JSRP1 (11732532_at) / RFU KRTAP10-11 (11738290_x_at) / Fold change /veh KRTAP10-11 (11738290_x_at) / RFU MYO3A (11730013_a_at) / Fold change /veh MYO3A (11730013_a_at) / RFU EBF3 (11725865_a_at) / Fold change /veh EBF3 (11725865_a_at) / RFU CAMK2N1 (11719241_x_at) / Fold change /veh CAMK2N1 (11719241_x_at) / RFU C5orf56 (11738088_a_at) / Fold change /veh C5orf56 (11738088_a_at) / RFU OLFML3 (11715873_a_at) / Fold change /veh OLFML3 (11715873_a_at) / RFU LOC100653217 /// NTM (11731650_a_at) / Fold change /veh LOC100653217 /// NTM (11731650_a_at) / RFU MAPK11 (11762145_a_at) / Fold change /veh MAPK11 (11762145_a_at) / RFU FIZ1 (11724087_x_at) / Fold change /veh FIZ1 (11724087_x_at) / RFU OASL (11726364_x_at) / Fold change /veh OASL (11726364_x_at) / RFU SOX15 (11748057_x_at) / Fold change /veh SOX15 (11748057_x_at) / RFU CD79A (11719716_a_at) / Fold change /veh CD79A (11719716_a_at) / RFU HIST1H1D (11736915_at) / Fold change /veh HIST1H1D (11736915_at) / RFU CASKIN2 (11723855_a_at) / Fold change /veh CASKIN2 (11723855_a_at) / RFU LOC730098 (11760151_x_at) / Fold change /veh LOC730098 (11760151_x_at) / RFU OR4N2 (11742367_at) / Fold change /veh OR4N2 (11742367_at) / RFU PRRT2 (11749266_a_at) / Fold change /veh PRRT2 (11749266_a_at) / RFU SNX32 (11753110_a_at) / Fold change /veh SNX32 (11753110_a_at) / RFU CDHR5 (11726645_a_at) / Fold change /veh CDHR5 (11726645_a_at) / RFU RCAN1 (11760418_a_at) / Fold change /veh RCAN1 (11760418_a_at) / RFU FAM167A (11723789_a_at) / Fold change /veh FAM167A (11723789_a_at) / RFU FAM26E (11764081_at) / Fold change /veh FAM26E (11764081_at) / RFU ISYNA1 (11749810_s_at) / Fold change /veh ISYNA1 (11749810_s_at) / RFU ACY1 (11761880_at) / Fold change /veh ACY1 (11761880_at) / RFU 11764098_at / Fold change /veh 11764098_at / RFU SAMD14 (11745864_x_at) / Fold change /veh SAMD14 (11745864_x_at) / RFU NPB (11741838_a_at) / Fold change /veh NPB (11741838_a_at) / RFU TMPRSS6 (11731388_a_at) / Fold change /veh TMPRSS6 (11731388_a_at) / RFU KRTAP10-2 (11738614_at) / Fold change /veh KRTAP10-2 (11738614_at) / RFU ARHGAP8 /// PRR5-ARHGAP8 (11727945_x_at) / Fold change /veh ARHGAP8 /// PRR5-ARHGAP8 (11727945_x_at) / RFU KRTAP5-7 /// NADSYN1 (11734609_at) / Fold change /veh KRTAP5-7 /// NADSYN1 (11734609_at) / RFU RASL12 (11751679_a_at) / Fold change /veh RASL12 (11751679_a_at) / RFU CDKN2B (11736163_a_at) / Fold change /veh CDKN2B (11736163_a_at) / RFU PRF1 (11729649_at) / Fold change /veh PRF1 (11729649_at) / RFU, ZNF638 /// ZNF638-IT1 / Fold change vs veh, ZNF638 /// ZNF638-IT1 / RFU, PANK3 / Fold change vs veh, PANK3 / RFU, SH3YL1 / Fold change vs veh, SH3YL1 / RFU, ZEB2 / Fold change vs veh, ZEB2 / RFU, NRIP1 / Fold change vs veh, NRIP1 / RFU, PTTG1IP / Fold change vs veh, PTTG1IP / RFU, CAPN2 / Fold change vs veh, CAPN2 / RFU, MED14 / Fold change vs veh, MED14 / RFU, SNORA58 / Fold change vs veh, SNORA58 / RFU, C1orf63 / Fold change vs veh, C1orf63 / RFU, LRRFIP1 / Fold change vs veh, LRRFIP1 / RFU, NDUFAF7 / Fold change vs veh, NDUFAF7 / RFU, SLC12A2 / Fold change vs veh, SLC12A2 / RFU, IBTK / Fold change vs veh, IBTK / RFU, ESF1 / Fold change vs veh, ESF1 / Fold change vs veh, TMEM50B / RFU, TAOK1 / Fold change vs veh, TAOK1 / RFU, ACBD3 / Fold change vs veh, ACBD3 / RFU, TMA16 / Fold change vs veh, TMA16 / RFU, RWDD3 / Fold change vs veh, RWDD3 / RFU, BCAT1 / Fold change vs veh, BCAT1 / RFU, EDEM3 / Fold change vs veh, EDEM3 / RFU, TMEM33 / Fold change vs veh, TMEM33 / RFU, WDR75 / Fold change vs veh, WDR75 / RFU, AHCTF1 / Fold change vs veh, AHCTF1 / RFU, TFRC / Fold change vs veh, TFRC / RFU, ZDHHC17 / Fold change vs veh, ZDHHC17 / RFU, NOM1 / Fold change vs veh, NOM1 / RFU, ARL8B / Fold change vs veh, ARL8B / RFU, ZBTB11 / Fold change vs veh, ZBTB11 / RFU, TAMM41 / Fold change vs veh, TAMM41 / RFU, KIAA1704 /// LOC100996395 / Fold change vs veh, KIAA1704 /// LOC100996395 / RFU, ING1 / Fold change vs veh, ING1 / RFU, TRMT61B / Fold change vs veh, TRMT61B / RFU, FUBP3 / Fold change vs veh, FUBP3 / RFU, TP53 / Fold change vs veh, TP53 / RFU, TNKS2 / Fold change vs veh, TNKS2 / RFU, ZFP14 / Fold change vs veh, ZFP14 / RFU, ACTR2 / Fold change vs veh, ACTR2 / RFU, PPP3R1 / Fold change vs veh, PPP3R1 / RFU, PIK3R1 / Fold change vs veh, PIK3R1 / RFU, HNRNPA1 / Fold change vs veh, HNRNPA1 / RFU, RNF170 / Fold change vs veh, RNF170 / RFU, ZNF28 / Fold change vs veh, ZNF28 / RFU, RNGTT / Fold change vs veh, RNGTT / RFU, OGT / Fold change vs veh, OGT / RFU, BRD1 / Fold change vs veh, BRD1 / RFU, MARS / Fold change vs veh, MARS / RFU, ZNF655 / Fold change vs veh, ZNF655 / RFU, FAHD1 / Fold change vs veh, FAHD1 / RFU, BDP1 / Fold change vs veh, BDP1 / RFU, LRRCC1 / Fold change vs veh, LRRCC1 / RFU, ARID1A / Fold change vs veh, ARID1A / RFU, ZNF146 / Fold change vs veh, ZNF146 / RFU, ZNF330 / Fold change vs veh, ZNF330 / RFU, GPN3 / Fold change vs veh, GPN3 / RFU, C9orf123 / Fold change vs veh, C9orf123 / RFU, N4BP2L2 / Fold change vs veh, N4BP2L2 / RFU, ARFIP1 / Fold change vs veh, ARFIP1 / RFU, FAM179B / Fold change vs veh, FAM179B / RFU, BCL10 / Fold change vs veh, BCL10 / RFU, UHRF1BP1L / Fold change vs veh, UHRF1BP1L / RFU, BET1 / Fold change vs veh, BET1 / RFU, CNOT2 / Fold change vs veh, CNOT2 / RFU, ZNF268 / Fold change vs veh, ZNF268 / Fold change vs veh, ZNF507 / RFU, DGCR2 / Fold change vs veh, DGCR2 / RFU, WDSUB1 / Fold change vs veh, WDSUB1 / Fold change vs veh, HSP90B1 /// MIR3652 / RFU, ADSS / Fold change vs veh, ADSS / RFU, GK / Fold change vs veh, GK / RFU, ZNF148 / Fold change vs veh, ZNF148 / RFU, TAF9 / Fold change vs veh, TAF9 / RFU, SLC1A5 / Fold change vs veh, SLC1A5 / RFU, SLMO2 / Fold change vs veh, SLMO2 / RFU, ABCC4 / Fold change vs veh, ABCC4 / RFU, LOC101060439 /// RAP1B / Fold change vs veh, LOC101060439 /// RAP1B / RFU, RFX7 / Fold change vs veh, RFX7 / RFU, GTPBP10 / Fold change vs veh, GTPBP10 / RFU, CNEP1R1 / Fold change vs veh, CNEP1R1 / RFU, BIVM-ERCC5 /// ERCC5 / Fold change vs veh, BIVM-ERCC5 /// ERCC5 / RFU, ILF3 / Fold change vs veh, ILF3 / RFU 11762660_at / Fold change /veh 11762660_at / RFU VCAN (11757783_s_at) / Fold change /veh VCAN (11757783_s_at) / RFU DDX43 (11728927_at) / Fold change /veh DDX43 (11728927_at) / RFU KRT8 (11758188_x_at) / Fold change /veh KRT8 (11758188_x_at) / RFU NKD1 (11759106_at) / Fold change /veh NKD1 (11759106_at) / RFU SRD5A1 (11742802_a_at) / Fold change /veh SRD5A1 (11742802_a_at) / RFU TPSAB1 /// TPSB2 (11721975_s_at) / Fold change /veh TPSAB1 /// TPSB2 (11721975_s_at) / RFU GSTM3 (11746129_a_at) / Fold change /veh GSTM3 (11746129_a_at) / RFU IL23R (11737362_x_at) / Fold change /veh IL23R (11737362_x_at) / RFU TMEM51 (11727254_a_at) / Fold change /veh TMEM51 (11727254_a_at) / RFU PIWIL2 (11732686_x_at) / Fold change /veh PIWIL2 (11732686_x_at) / RFU ORM1 (11744905_x_at) / Fold change /veh ORM1 (11744905_x_at) / RFU CCDC152 (11743942_at) / Fold change /veh CCDC152 (11743942_at) / RFU ECM1 (11717891_a_at) / Fold change /veh ECM1 (11717891_a_at) / RFU IL23R (11748794_a_at) / Fold change /veh IL23R (11748794_a_at) / RFU TNFAIP8L3 (11732012_x_at) / Fold change /veh TNFAIP8L3 (11732012_x_at) / RFU MBOAT4 (11741988_at) / Fold change /veh MBOAT4 (11741988_at) / RFU 11764193_at / Fold change /veh 11764193_at / RFU TMEM53 (11763286_at) / Fold change /veh TMEM53 (11763286_at) / RFU MAGEB2 (11727129_at) / Fold change /veh MAGEB2 (11727129_at) / RFU TMEM200A (11744735_a_at) / Fold change /veh TMEM200A (11744735_a_at) / RFU CCDC152 (11751479_a_at) / Fold change /veh CCDC152 (11751479_a_at) / RFU FAM211A (11726209_a_at) / Fold change /veh FAM211A (11726209_a_at) / RFU RGS16 (11746705_a_at) / Fold change /veh RGS16 (11746705_a_at) / RFU VCAN (11755009_s_at) / Fold change /veh VCAN (11755009_s_at) / RFU RHOB (11743442_s_at) / Fold change /veh RHOB (11743442_s_at) / RFU RGS16 (11720943_a_at) / Fold change /veh RGS16 (11720943_a_at) / RFU RGS16 (11720944_at) / Fold change /veh RGS16 (11720944_at) / RFU, VPS4B / Fold change vs veh, VPS4B / RFU, CREB1 / Fold change vs veh, CREB1 / RFU, DNAJC13 / Fold change vs veh, DNAJC13 / RFU, GNAQ / Fold change vs veh, GNAQ / RFU, CDK5R1 / Fold change vs veh, CDK5R1 / RFU, ZRANB3 / Fold change vs veh, ZRANB3 / RFU, CUL4A / Fold change vs veh, CUL4A / RFU, CCNY / Fold change vs veh, CCNY / RFU, UFL1 / Fold change vs veh, UFL1 / RFU, COG3 / Fold change vs veh, COG3 / RFU, DIAPH2 / Fold change vs veh, DIAPH2 / RFU, SKA2 / Fold change vs veh, SKA2 / RFU, AFF3 / Fold change vs veh, AFF3 / RFU, LMF1 / Fold change vs veh, LMF1 / RFU, IPO11 / Fold change vs veh, IPO11 / RFU, DFFB / Fold change vs veh, DFFB / RFU, FOXP1 / Fold change vs veh, FOXP1 / RFU, CARD8 / Fold change vs veh, CARD8 / RFU, STRN3 / Fold change vs veh, STRN3 / RFU, ADK / Fold change vs veh, ADK / RFU, RASSF2 / Fold change vs veh, RASSF2 / RFU, WIPF1 / Fold change vs veh, WIPF1 / RFU, LARP1B / Fold change vs veh, LARP1B / RFU, RASA1 / Fold change vs veh, RASA1 / RFU, RB1 / Fold change vs veh, RB1 / RFU, PPFIA1 / Fold change vs veh, PPFIA1 / RFU, MAT2A / Fold change vs veh, MAT2A / RFU, CCT5 / Fold change vs veh, CCT5 / RFU, WDR92 / Fold change vs veh, WDR92 / RFU, CUX1 / Fold change vs veh, CUX1 / RFU, TTC7A / Fold change vs veh, TTC7A / RFU, TMEM135 / Fold change vs veh, TMEM135 / RFU, DEPTOR / Fold change vs veh, DEPTOR / RFU, CPM / Fold change vs veh, CPM / RFU, DNAJB6 / Fold change vs veh, DNAJB6 / RFU, CACNA2D3 / Fold change vs veh, CACNA2D3 / RFU, DTX4 / Fold change vs veh, DTX4 / RFU, TFCP2 / Fold change vs veh, TFCP2 / RFU, GMCL1 /// GMCL1P1 / Fold change vs veh, GMCL1 /// GMCL1P1 / RFU, AEBP2 / Fold change vs veh, AEBP2 / RFU, SNHG1 /// SNORD22 /// SNORD25 /// SNORD26 /// SNORD27 /// SNORD28 /// SNORD29 /// SNORD31 / Fold change vs veh, SNHG1 /// SNORD22 /// SNORD25 /// SNORD26 /// SNORD27 /// SNORD28 /// SNORD29 /// SNORD31 / Fold change (Aza/veh), C12orf56 (ProbeSet 11735607_a_at) / Fold change (ACY-1035/veh), C12orf56 (ProbeSet 11735607_a_at) / Fold change (Aza/veh), FGFR1OP (ProbeSet 11751329_s_at) / Fold change (ACY-1035/veh), FGFR1OP (ProbeSet 11751329_s_at) / Fold change (Aza/veh), VPS36 (ProbeSet 11739960_a_at) / Fold change (ACY-1035/veh), VPS36 (ProbeSet 11739960_a_at) / RFU SYPL1 (11715823_x_at) / Fold change /veh SYPL1 (11715823_x_at) / RFU IGFBP7 (11715501_s_at) / Fold change /veh IGFBP7 (11715501_s_at) / RFU REEP3 (11722064_at) / Fold change /veh REEP3 (11722064_at) / RFU IGLL1 (11728026_x_at) / Fold change /veh IGLL1 (11728026_x_at): dose or concentration left out as unconfirmed. Conditions: MV-4-11 cells, 48 hours.

`Nc1ccc(-c2cccs2)cc1NC(=O)c1ccc2c(c1)cc(C1CC1)n2CCN1CCOCC1` [ACY-1035]: the “Fold change /veh KRTAP5-7 /// NADSYN1 (11734609_at)” value stood at 0.96.

The record behind these values is publication PMC5218480 (PLoS ONE, 2017).
